This note sets out measurements from US12479823B2, “Compound for use in retinal diseases” (ZHUHAI UNITED LABORATORIES CO., LTD., priority 2018, dated 2025).

For orientation: clearance means the volume of plasma or blood freed of the substance per unit of time. A lower clearance goes with inefficient removal. In general, IC50 refers to the concentration at which inhibition is half-maximal. Read a low IC50 as higher potency.

A short description of series [1]: In vitro aldehyde capture capacity test (complexing with nonanal, HPLC at 254 nm). The procedure: Objective: dry eye disease is caused by inflammation in eyes, wherein the inflammation may produce aldehydes that will accelerate the inflammation symptoms and worsen the dry eye disease if not eliminated in time. In the experiment, a better compound was selected according to the complexing capacity of the drug and aldehydes in vivo by simulating the in vivo environment.
Procedures: Sulfobutyl-B-cyclodextrin (310 mg) was dissolved in a phosphate buffer (1.25 mL) to prepare a solution.
Nonanal (5.0 mg, 32 μmol, 1.0 eq) and triolein (300 mg) were added to a reaction flask at room temperature, after addition of the prepared solution described above, linoleic acid (300 mg) was added, and finally a dimethyl sulfoxide (0.15 ml) solution containing the compound (32 μmol, 1.0 eq) of the present disclosure was added; the reaction solution was reacted at 20-23° C.
The reaction solution was reacted under stirring for 10 min, 100 min, 200 min, and 300 min respectively, and sampled for high performance liquid chromatography after the solution was stratified after standing for 2 min.
Sampling method: 25 μl of an upper emulsified layer and 50 μl of a lower aqueous phase were sampled by a pipette, and samples were diluted with 1 mL of methanol.
The ultraviolet absorption of the nonanal was weak at 254 nm, so the nonanal had little overall effect on the content of complexed products. Therefore, the percentage contents of complexes at 254 nm under high performance liquid chromatography were compared to observe aldehyde capture and complexing capacities, as shown in FIG. 1 and Table 1:
Taking The compound 7 as an example, after 300 min of reaction, the analytical method for HPLC was XBRIGE 2.5 μm, 3.0*100 mm 5-80CD_XBEH_12 min_0.8.1 cm;
Retention time 6.689 min, 6.787 min, 6.966 min, and 7.102 min were absorption peaks of products complexed with monomolecular aldehyde;
Retention time 8.905 min, 9.010 min, and 9.075 min were absorption peaks of products complexed with bimolecular aldehyde.

A short description of series [2]: Pharmacokinetics in Beagle dogs, single intravenous injection. In kind it is in vivo. The conditions noted are these: male, dog, plasma, 1 mg/kg single intravenous injection. As for the experimental part: Objective: To Study Pharmacokinetics of the Compound in Beagle Dogs
Experimental Material: Beagle Dogs (male, 8-11 kg, greater than or equal to 6 months, Marshall)
Pharmacokinetic profiles of the compound were tested by intravenous administration in […] according to the standard protocol. In the study, the candidate compound was prepared as a clear solution, and was administered to Beagle dogs at 1 mg/kg by single intravenous injection. A vehicle for intravenous injection was a 10% hydroxypropyl ß-cyclodextrin aqueous solution. Whole blood samples were collected at 0.033, 0.083, 0.25, 0.5, 1, 2, 4, 8, 12, and 24 hours, respectively, centrifuged at 3000 r for 10 min, and separated from supernatant to obtain plasma samples. 20 μL of plasma samples were mixed with 400 μL of acetonitrile precipitated proteins containing an internal standard, and 2 μL of the supernatant was injected by centrifugation. Plasma concentrations were quantified by LC-MS/MS analysis, and pharmacokinetic parameters, such as clearance, half-life, and area under the concentration-time curve, etc. were calculated.

The next series has as its target T1, CYP2D6 (Homo sapiens, UniProt P10635).
T1 construct: fused human liver microsomes were selected as a CYP450 enzyme source; from tissue; host or cells: pooled ("fused") human liver microsomes
Nature of the series: Inhibition of human liver microsomal cytochrome P450 CYP2D6. In kind it is in vitro ADME. The conditions noted are these: human liver microsomes, probe substrate, NADPH. An excerpt:
Objective: To study the inhibitory effect of compounds on human liver microsomal cytochrome P450. Experimental procedures: In the study on inhibition of the compounds on the human liver microsomal cytochrome P450 (CYP1A2, CYP2C9, CYP2C19, CYP2D6 and CYP3A4), fused human liver microsomes were selected as a CYP450 enzyme source. […]

Each structure is given as a SMILES string.

T1 sequence (P10635 whole entry, the tested form may be a part): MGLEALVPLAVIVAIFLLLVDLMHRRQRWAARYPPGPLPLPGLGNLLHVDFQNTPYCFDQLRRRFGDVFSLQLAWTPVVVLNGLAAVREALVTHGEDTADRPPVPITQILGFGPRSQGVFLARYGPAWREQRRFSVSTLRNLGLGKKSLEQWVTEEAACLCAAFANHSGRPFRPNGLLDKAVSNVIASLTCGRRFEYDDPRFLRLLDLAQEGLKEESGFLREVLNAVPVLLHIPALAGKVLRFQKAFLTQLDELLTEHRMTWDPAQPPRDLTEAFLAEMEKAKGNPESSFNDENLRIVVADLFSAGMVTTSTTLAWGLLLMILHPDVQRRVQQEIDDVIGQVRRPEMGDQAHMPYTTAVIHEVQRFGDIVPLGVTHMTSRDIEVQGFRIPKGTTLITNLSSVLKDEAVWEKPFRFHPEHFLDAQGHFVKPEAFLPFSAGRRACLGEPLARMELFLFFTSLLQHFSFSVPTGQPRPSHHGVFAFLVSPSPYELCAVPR

Consider `CC(C)(O)c1ccc(-c2cnc(C(C)(C)O)c(N)c2)cc1N` [Compound 3], for which the “percentage content of complexed products at 254 nm” value is 3.265% in series [1] (Time 10 min), 10.569% in series [1] (Time 100 min), 17.191% in series [1] (Time 200 min) and 22.182% in series [1] (Time 300 min). In addition, in series [1] (nonanal 1.0 eq, compound 1.0 eq, 20-23° C., 10-300 min, HPLC 254 nm), the “Area under the curve AUC” value was found to be 3979 min. Conversion. Moreover, the “Slope (linear equation of percentage content of complexed products vs time)” value in series [1] (nonanal 1.0 eq, compound 1.0 eq, 20-23° C., 10-300 min, HPLC 254 nm, in %/min) came out at 0.0652. In series [2], the clearance stood at 15 mL/min/kg. Moreover, in series [2] (read-out: Area under the concentration-time curve AUC), the AUC came to 3.71 µM·h. In series [2] (read-out: Half-time T1/2 (converted)), the half-life was 2.17 h. At CYP2D6, the 50% inhibitory concentration (IC50) was more than 50 µM.
